Reference: the NIST ThermoML archive (doi:10.1021/je1009976)

Test: xn = mol fraction of the nth substance listed
Details: 101 kPa, Liquid; for viscosity: Capillary tube (Ostwald / Ubbelohde) method; for mass density: Pycnometric method

OCCOCCO [diethylene glycol] + O
Details | mass density, 303.15 K [kg/m3] | mass density, 308.15 K [kg/m3] | mass density, 313.15 K [kg/m3] | mass density, 318.15 K [kg/m3] | mass density, 323.15 K [kg/m3] | viscosity, 303.15 K [mPa·s] | viscosity, 308.15 K [mPa·s] | viscosity, 313.15 K [mPa·s] | viscosity, 318.15 K [mPa·s] | viscosity, 323.15 K [mPa·s]
x1 = 0.05006 | 1028.38 | 1026.09 | 1023.67 | 1021.08 | 1018.36 | 1.556 | 1.37 | 1.222 | 1.091 | 0.985
x1 = 0.1016 | 1051.83 | 1048.94 | 1046.02 | 1043.03 | 1039.94 | 2.582 | 2.242 | 1.962 | 1.729 | 1.535
x1 = 0.1512 | 1067.99 | 1065.34 | 1062.04 | 1058.72 | 1055.2 | 3.83 | 3.286 | 2.833 | 2.459 | 2.161
x1 = 0.2012 | 1078.71 | 1075.25 | 1071.77 | 1068.24 | 1064.5 | 5.261 | 4.448 | 3.806 | 3.286 | 2.846
x1 = 0.2477 | 1086.55 | 1082.95 | 1079.42 | 1075.76 | 1072.18 | 6.653 | 5.591 | 4.739 | 4.052 | 3.506
x1 = 0.298 | 1092.27 | 1088.52 | 1084.97 | 1081.58 | 1077.47 | 8.301 | 6.91 | 5.82 | 4.962 | 4.252
x1 = 0.3505 | 1096.22 | 1092.42 | 1088.68 | 1084.97 | 1081.16 | 9.851 | 8.154 | 6.821 | 5.768 | 4.929
x1 = 0.4483 | 1101.17 | 1097.58 | 1093.68 | 1089.91 | 1086.1 | 12.54 | 10.29 | 8.514 | 7.148 | 6.071
x1 = 0.5421 | 1103.74 | 1100.11 | 1096.37 | 1092.91 | 1088.98 | 15.06 | 12.28 | 10.14 | 8.478 | 7.143
x1 = 0.6518 | 1106.25 | 1102.58 | 1098.97 | 1095.29 | 1091.34 | 17.46 | 14.11 | 11.63 | 9.672 | 8.114
x1 = 0.7525 | 1107.78 | 1103.95 | 1100.25 | 1096.58 | 1093.18 | 19.3 | 15.64 | 12.82 | 10.65 | 8.937
x1 = 0.7864 | 1107.94 | 1104.26 | 1100.56 | 1096.89 | 1093.37 | 19.9 | 16.12 | 13.23 | 10.96 | 9.19
x1 = 0.8499 | 1108.55 | 1104.93 | 1101.32 | 1097.62 | 1093.91 | 20.61 | 16.74 | 13.73 | 11.42 | 9.461
x1 = 0.9005 | 1108.84 | 1105.16 | 1101.55 | 1097.87 | 1094.19 | 21.31 | 17.23 | 14.08 | 11.69 | 9.799
x1 = 0.9503 | 1109.66 | 1105.58 | 1101.98 | 1098.33 | 1094.55 | 21.74 | 17.53 | 14.41 | 11.92 | 9.999
x1 = 1 | 1109.48 | 1105.72 | 1102.11 | 1098.35 | 1094.94 | 22.16 | 17.93 | 14.71 | 12.19 | 10.19
